Legend:
Assay type in all cases: cell-based, human
CAKI-1 = experiment: NCI screening panel, CAKI-1 (Renal Cancer)
Method: (§1) Representative compounds of Formula I were screened using the National Cancer Institute (NCI) screening panel, which consists of a panel of human tumor cell lines, representing leukemia, melanoma, and cancers of the lung, colon, ovary, breast, prostate and renal system.
(§2) After 24 h, two plates of each cell line are fixed in situ with TCA, to represent a measurement of the cell population for each cell line at the time of drug addition (Tz). Experimental drugs are solubilised in dimethyl sulfoxide at 400-fold the desired final maximum test concentration and stored frozen prior to use. At the time of drug addition, an aliquot of frozen concentrate is thawed and diluted to twice the desired final maximum test concentration with complete medium containing 50 μg/mL gentamicin. Additional four, 10-fold or ½ log serial dilutions are made to provide a total of five drug concentrations plus control. Aliquots of 100 μl of these different drug dilutions are added to the appropriate microtiter wells already containing 100 μl of medium, resulting in the required final drug concentrations.
(§3) Following drug addition, the plates are incubated for an additional 48 h at 37° C., 5% CO2, 95% air, and 100% relative humidity. For adherent cells, the assay is terminated by the addition of cold TCA (trichloroacetic acid). Cells are fixed in situ by the gentle addition of 50 μl of cold 50% (w/v) TCA (final concentration, 10% TCA) and incubated for 60 minutes at 4° C. The supernatant is discarded, and the plates are washed five times with tap water and air dried. Sulforhodamine B (SRB) solution (100 μl) at 0.4% (w/v) in 1% acetic acid is added to each well, and plates are incubated for 10 minutes at room temperature. After staining, unbound dye is removed by washing five times with 1% acetic acid and the plates are air dried. Bound stain is subsequently solubilised with 10 mM trizma base, and the absorbance is read on an automated plate reader at a wavelength of 515 nm. For suspension cells, the methodology is the same except that the assay is terminated by fixing settled cells at the bottom of the wells by gently adding 50 μl of 80% TCA (final concentration, 16% TCA). Using the seven absorbance measurements [time zero, (Tz), control growth, (C), and test growth in the presence of drug at the five concentration levels (Ti)], the percentage growth is calculated at each of the drug concentrations levels. Percentage growth inhibition is calculated as: [(Ti−Tz)/(C−Tz)]×100 for concentrations for which Ti>/=Tz and [(Ti−Tz)/Tz]×100 for concentrations for which Ti<Tz.
(§4) Three dose response parameters are calculated for each experimental agent. Growth inhibition of 50% (GI50) is calculated from [(Ti−Tz)/(C−Tz)]×100=50, which is the drug concentration resulting in a 50% reduction in the net protein increase (as measured by SRB staining) in control cells during the drug incubation. The drug concentration resulting in total growth inhibition (TGI) is calculated from Ti=Tz. The LC50 (concentration of drug resulting in a 50% reduction in the measured protein at the end of the drug treatment as compared to that at the beginning) indicating a net loss of cells following treatment is calculated from [(Ti−Tz)/Tz]×100=−50. Values are calculated for each of these three parameters if the level of activity is reached. However, if the effect is not reached or is exceeded, the value for that parameter is expressed as greater or less than the maximum or minimum concentration tested.

OVCAR-8 = experiment: NCI screening panel, OVCAR-8 (Ovarian Cancer)
Method: as §1, §2, §3, §4

SK-MEL-28 = experiment: NCI screening panel, SK-MEL-28 (Melanoma)
Method: as §1, §2, §3, §4

MALME-3M = experiment: NCI screening panel, MALME-3M (Melanoma)
Method: as §1, §2, §3, §4

NCI-H226 = experiment: NCI screening panel, NCI-H226 (Non-Small Cell Lung Cancer)
Method: as §1, §2, §3, §4

HOP-62 = experiment: NCI screening panel, HOP-62 (Non-Small Cell Lung Cancer)
Method: as §1, §2, §3, §4

SF-295 = experiment: NCI screening panel, SF-295 (CNS Cancer)
Method: as §1, §2, §3, §4

OVCAR-5 = experiment: NCI screening panel, OVCAR-5 (Ovarian Cancer)
Method: as §1, §2, §3, §4

NCI-H322M = experiment: NCI screening panel, NCI-H322M (Non-Small Cell Lung Cancer)
Method: as §1, §2, §3, §4

UACC-257 = experiment: NCI screening panel, UACC-257 (Melanoma)
Method: as §1, §2, §3, §4

NCI-H23 = experiment: NCI screening panel, NCI-H23 (Non-Small Cell Lung Cancer)
Method: as §1, §2, §3, §4

TK-10 = experiment: NCI screening panel, TK-10 (Renal Cancer)
Method: as §1, §2, §3, §4

HCC-2998 = experiment: NCI screening panel, HCC-2998 (Colon Cancer)
Method: as §1, §2, §3, §4

MOLT-4 = experiment: NCI screening panel, MOLT-4 (Leukemia)
Method: as §1, §2, §3, §4

SW-620 = experiment: NCI screening panel, SW-620 (Colon Cancer)
Method: as §1, §2, §3, §4

HCT-116 = experiment: NCI screening panel, HCT-116 (Colon Cancer)
Method: as §1, §2, §3, §4

T-47D = experiment: NCI screening panel, T-47D (Breast Cancer)
Method: as §1, §2, §3, §4

SF-268 = experiment: NCI screening panel, SF-268 (CNS Cancer)
Method: as §1, §2, §3, §4

PC-3 = experiment: NCI screening panel, PC-3 (Prostate Cancer)
Method: as §1, §2, §3, §4

Q: For `CC(C)C[C@H](NC(=O)[C@H](COC(F)F)NC(=O)[C@H](COC(F)F)NC(=O)[C@H](COC(F)F)NC(=O)CN1CCOCC1)C(=O)[C@@]1(C)CO1` [Example 17, (2S)-3-(difluoromethoxy)-N-[(1S)-1-(difluoromethoxymethyl)-2-[[(1S)-1-(difluoro-methoxymethyl)-2-[[(1S)-3-methyl-1-[(2R)-2-methyloxirane-2-carbonyl]butyl]amino]-2-oxo-ethyl]amino]-2-oxo-ethyl]-2-[(2-mor-pholinoacetyl)amino]-propanamide], which Log10GI50 (CAKI-1) is on record?
A: −5.54

Q: And the Log10LC50 (CAKI-1)?
A: >−4.00

Q: What about the Log10TGI50 (CAKI-1) of the same compound?
A: −4.81

Q: And the Log10GI50 (OVCAR-8)?
A: −6.31

Q: And the Log10LC50 (OVCAR-8)?
A: >−4.00

Q: And the Log10TGI50 (OVCAR-8)?
A: −5.25

Q: What about the Log10GI50 (SK-MEL-28) of the same compound?
A: −6.97

Q: What about the Log10LC50 (SK-MEL-28) of the same compound?
A: >−4.00

Q: And the Log10TGI50 (SK-MEL-28)?
A: −5.69

Q: And the Log10GI50 (MALME-3M)?
A: −6.76

Q: What about the Log10LC50 (MALME-3M) of the same compound?
A: >−4.00

Q: And the Log10TGI50 (MALME-3M)?
A: −6.09

Q: And the Log10GI50 (NCI-H226)?
A: −7.15

Q: What about the Log10LC50 (NCI-H226) of the same compound?
A: −6.14

Q: And the Log10TGI50 (NCI-H226)?
A: −6.61

Q: What about the Log10GI50 (HOP-62) of the same compound?
A: −6.82

Q: And the Log10LC50 (HOP-62)?
A: >−4.00

Q: And the Log10TGI50 (HOP-62)?
A: >−4.00

Q: What about the Log10GI50 (SF-295) of the same compound?
A: −6.82

Q: And the Log10LC50 (SF-295)?
A: −5.37

Q: What about the Log10TGI50 (SF-295) of the same compound?
A: −6.20

Q: What about the Log10GI50 (OVCAR-5) of the same compound?
A: −6.55

Q: What about the Log10LC50 (OVCAR-5) of the same compound?
A: >−4.00

Q: And the Log10TGI50 (OVCAR-5)?
A: −5.71

Q: And the Log10GI50 (NCI-H322M)?
A: −6.58

Q: And the Log10LC50 (NCI-H322M)?
A: −4.92

Q: What about the Log10TGI50 (NCI-H322M) of the same compound?
A: −5.73

Q: And the Log10GI50 (UACC-257)?
A: −6.45

Q: And the Log10LC50 (UACC-257)?
A: >−4.00

Q: And the Log10TGI50 (UACC-257)?
A: −5.56

Q: What about the Log10GI50 (NCI-H23) of the same compound?
A: −7.15

Q: What about the Log10LC50 (NCI-H23) of the same compound?
A: >−4.00

Q: What about the Log10TGI50 (NCI-H23) of the same compound?
A: −5.98

Q: What about the Log10GI50 (TK-10) of the same compound?
A: −6.30

Q: And the Log10LC50 (TK-10)?
A: >−4.00

Q: And the Log10TGI50 (TK-10)?
A: −4.85

Q: And the Log10GI50 (HCC-2998)?
A: −6.74

Q: And the Log10LC50 (HCC-2998)?
A: −6.19

Q: What about the Log10TGI50 (HCC-2998) of the same compound?
A: −6.46

Q: What about the Log10GI50 (MOLT-4) of the same compound?
A: −7.42

Q: What about the Log10LC50 (MOLT-4) of the same compound?
A: >−4.00

Q: What about the Log10TGI50 (MOLT-4) of the same compound?
A: −6.41

Q: And the Log10GI50 (SW-620)?
A: −7.08

Q: And the Log10LC50 (SW-620)?
A: >−4.00

Q: And the Log10TGI50 (SW-620)?
A: −4.95

Q: And the Log10GI50 (HCT-116)?
A: −7.45

Q: What about the Log10LC50 (HCT-116) of the same compound?
A: −4.50

Q: What about the Log10TGI50 (HCT-116) of the same compound?
A: −6.60

Q: And the Log10GI50 (T-47D)?
A: −7.10

Q: What about the Log10LC50 (T-47D) of the same compound?
A: >−4.00

Q: And the Log10TGI50 (T-47D)?
A: −6.33

Q: What about the Log10GI50 (SF-268) of the same compound?
A: −7.15

Q: And the Log10LC50 (SF-268)?
A: −4.87

Q: What about the Log10TGI50 (SF-268) of the same compound?
A: −6.47

Q: And the Log10GI50 (PC-3)?
A: −6.76

Q: And the Log10LC50 (PC-3)?
A: −5.02

Q: And the Log10TGI50 (PC-3)?
A: −6.12

— patent US20150218212A1, “FLUORINATED EPOXYKETONE-BASED TETRAPEPTIDE COMPOUNDS AND USES THEREOF AS PROTEASOME INHIBITORS” (FLUORINOV PHARMA INC., priority 2012, published 2015)
